Assay [1] has as its system WT and Ostn-KO mice. The assay can be described thus: VO2 max / oxygen consumption on metabolic treadmill (indirect calorimetry) after musclin infusion. It counts as in vivo. The note with it: for oxygen consumption, VO2, over time upon initiation of treadmill exercise: 3 weeks of musclin by osmotic pump. An excerpt: Natriuretic peptide/cGMP signaling is increasingly recognized as a key regulator of metabolic homeostasis, including effects on skeletal muscle mitochondrial biogenesis and oxidative phosphorylation potential. Maximal aerobic capacity (VO2 max) is commonly used to estimate overall aerobic fitness based on cardiopulmonary function and oxidative phosphorylation potential. To determine whether musclin production impacts aerobic capacity as a potential mechanism underlying differences in exercise tolerance, exercise-trained Ostn-KO and WT mice were monitored on a metabolic treadmill equipped for indirect calorimetry (Columbus instruments, Columbus Ohio). After 5 days of training, mice were placed on the stationary treadmill for 30 minutes and then were exposed to the protocol of escalating exercise workload to determine their VO2 max. […] To assess this, electron micrographs of longitudinal sections through tibialis anterior of exercised mice were examined and appear to show smaller mitochondrial size in the Ostn-KO compared to WT mice (FIG. 6B). […] Furthermore, disruption of normal musclin signaling appears to impact fiber type composition. Specifically, histologic examination of skeletal muscles from Ostn-KO vs. WT mice indicates a shift towards more pure glycolytic type IIb fibers in the KO (FIGS. 10A-10B). Differences between sedentary WT and Ostn-KO mice were less marked (FIGS. 11A-11G), which were consistent with the findings that exercise augments musclin signaling in the WT mice. […] The pattern of distribution of fiber types from muscles of sedentary WT and Ostn-KO was similar to that of their exercise-trained counterparts, consistent with a slower adaptation of fiber type to exercise, except that there was a slightly more prominent component of type IIA fibers in exercised mice (FIG. 12, n=4 each for tibialis anterior and n=3 each for biceps femoris, *p<0.05).
Whole body composition was obtained by time-domain nuclear magnetic resonance under isoflurane anesthesia (Bruker Minispec; Billerica, Mass.). […]
A multi-lane treadmill (Columbus Instruments, Columbus, Ohio) was used to simultaneously exercise model mice with their controls. […] For indirect calorimetry, oxygen consumption (VO2) and CO2 generation were measured using a two-lane modular treadmill connected to the Oxymax indirect calorimetry system (Columbus Instruments, Inc.). […]

Assay [2] relates to cGMP production in murine primary myoblasts. Briefly: cGMP production in skeletal myoblast culture exposed to ANP and musclin. It counts as cell-based. Conditions: n=3. The method, then: Cyclic GMP levels were measured using cyclicGMP EIA kit (Cayman Chemical Company, Ann Arbor, Mich.). Mice were exercised for 5 days, 12 m/min, 45 min before tissue collection. At the day of the experiment mice were exercised 12 m/min, 20 min, sedated with isoflurane and gastrocnemius muscle tissue was collected. Cyclic nucleotides were extracted using 5% trichloracetic acid. Samples were acetylated and used for cGMP level measurements according to the manufacturer's protocol.
Mouse primary myoblasts were isolated from gastrocnemius muscle of 4-6 weeks old mice. Fresh muscle tissue was digested with 2 mg/ml collagenase II in DMEM-F12 for 1.5 h at 37° C.; then 30 min at 37° C. with 1 mg/ml collagenase II and 0.5 mg/ml dispase in DMEM-F12. Tissue was ground and passed through a 100 μm then 70 μm cell strainer and spun at 1000 rpm for 10 min. Myoblasts were resuspended in DMEM-F12 supplemented with 20% FBS, 40 ng/ml bFGF, non-essential amino acids, 1 mM β-mercaptoethanol. Cells were plated on matrigel coated dishes. Cells were maintained in DMEM-F12 supplemented with 20% FBS, 10 ng/ml bFGF, non-essential amino acids, 1 mM β-mercaptoethanol until 80% confluent. Then they were differentiated in DMEM-F12 supplemented with 2% FBS and insulin-transferrin-selenium for 10 days. Human skeletal myoblast primary culture (lot #SLSK002, Zenbio, Research Triangle Park, NC) was maintained according to the supplier's manual.

Assay [3] concerns the target T1, NP clearance receptor, NPRC (Homo sapiens, UniProt P17342).
T1 sequence (P17342 27-541): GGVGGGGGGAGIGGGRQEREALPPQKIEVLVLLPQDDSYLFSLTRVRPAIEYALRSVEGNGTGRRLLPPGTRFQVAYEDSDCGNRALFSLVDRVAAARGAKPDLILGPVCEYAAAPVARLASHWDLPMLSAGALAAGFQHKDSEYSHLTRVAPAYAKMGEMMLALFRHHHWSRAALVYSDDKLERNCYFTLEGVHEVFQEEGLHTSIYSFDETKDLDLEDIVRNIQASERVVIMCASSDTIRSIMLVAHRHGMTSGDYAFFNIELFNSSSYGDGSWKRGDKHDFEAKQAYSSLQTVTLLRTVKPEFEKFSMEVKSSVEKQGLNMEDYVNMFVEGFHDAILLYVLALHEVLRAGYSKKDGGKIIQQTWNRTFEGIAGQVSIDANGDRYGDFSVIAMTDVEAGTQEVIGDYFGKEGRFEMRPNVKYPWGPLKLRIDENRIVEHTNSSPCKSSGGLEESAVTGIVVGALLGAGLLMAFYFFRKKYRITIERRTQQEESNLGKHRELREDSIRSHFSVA
The note with it: background statement; cited from earlier work.

With “H-SFSGFGSPLDRLSAGSVEHRGKQRKAVDHSKKR-OH [musclin]”, the VO2 max in assay [1] (Ostn-KO mice after 3 weeks of musclin infusion via osmotic pumps, n=3) stood at 136.6 ± 1.67 mL/min/kg; in assay [1] (WT mice after 3 weeks of musclin infusion via osmotic pumps, n=4), 133.9 ± 1.28 mL/min/kg. Moreover, the “oxygen consumption, VO2, over time upon initiation of treadmill exercise” value is recorded as “better than WT treated with saline once steady state was achieved” in assay [1] (Ostn-KO mice, vs. WT treated with saline) and “slightly better for several time points” in assay [1] (WT mice, vs. WT mice treated with saline). Moreover, the cGMP production in assay [2] (1 μM musclin without ANP) was determined as 0.104±0.006 fmol/μg protein; in assay [2] (5 μM musclin without ANP), 0.117±0.003 fmol/μg protein. Besides, the “binding to NPRC” value in assay [3] is recorded as “affinity comparable to NPs”.

The values are drawn from patent US11634466B2, “Musclin peptides and methods of use thereof” (UNIVERSITY OF IOWA RESEARCH FOUNDATION, priority 2016, dated 2023).
